Data reported in patent publication US8513265B2, “[6,6] and [6,7]-bicyclic GPR119 G protein-coupled receptor agonists” (Bristol-Myers Squibb Company, priority 2011, dated 2013).
Where a name gives a salt, the structure may show the parent alone.

Target: T1, GPR119 G protein-coupled receptor (Homo sapiens, UniProt Q8TDV5)
T1 construct: expressed in transfected cells; host or cells: Flp-In-T-REx 293 cells, tetracycline induced
T1 sequence (Q8TDV5 1-335): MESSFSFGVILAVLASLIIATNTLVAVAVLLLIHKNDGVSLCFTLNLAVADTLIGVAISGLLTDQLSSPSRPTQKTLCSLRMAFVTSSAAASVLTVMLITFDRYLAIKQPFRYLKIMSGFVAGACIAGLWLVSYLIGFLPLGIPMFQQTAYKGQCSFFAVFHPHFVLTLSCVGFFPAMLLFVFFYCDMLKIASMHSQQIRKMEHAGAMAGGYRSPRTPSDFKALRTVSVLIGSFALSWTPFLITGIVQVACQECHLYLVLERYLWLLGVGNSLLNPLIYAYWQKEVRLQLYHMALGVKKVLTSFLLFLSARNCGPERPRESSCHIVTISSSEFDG
Assay: Human Tet-Inducible cAMP Assay (hEC50, Table 1)
Type: cell-based
Design: IA: scale not given here
Settings: for IA: IA not defined
Description: Human Tet-Inducible cAMP Assay
Cell lines using the Flp-In-T-REx 293 tetracycline inducible gene expression system are cultured in culture medium comprising the following components: DMEM#11965, 10% FBS, 2 mM L-glutamine, 200 ug/ml Hygromycin B, and 15 ug/ml blasticidin.
For cAMP assays, cells are plated on 96 well plates (e.g., BD Falcon: REF 353948, black side, clear bottom, TC surface) at a density of about 4.5×10^4 cells per well in growth medium containing 1.0 ug/ml tetracycline (1.0 mg/ml stock). The cells are then incubated for 48 hours at 37° C.
Following the incubation, the growth medium is removed from the wells and the wells rinsed (once) with the assay buffer included in the Hit Hunter cAMP kit (100 μl/well). Following the wash, 20 μl of assay buffer is added to each well, followed by addition of 10 μl of a 3× concentration compound working solution. The solution is then mixed. The final concentration range of compound is from about 10^−5M to about 10^−11M. The reagents are then incubated at 37° C. at 5% CO2 for 1 hour.
The manufacturer's protocol may be followed for cAMP determination. The Hit Hunter cAMP kit protocol is outlined for the HIT-T15 cAMP assays described above.

Row | SMILES | EC50 | IA
1 | CC(C)(C)OC(=O)N1CCC(N2CCOc3c(Nc4ccc(S(C)(=O)=O)cc4Cl)ncnc32)CC1 [Example 7, tert-Butyl 4-(4-(2-chloro-4-(methylsulfonyl)phenylamino)-6H-pyrimido[5,4-b][1,4]oxazin-8(7H)-yl)piperidine-1-carboxylate] | 2.78 nM | 0.81
2 | CC(C)OC(=O)N1CCC(N2CCOc3c(Nc4ccncc4Cl)ncnc32)CC1 [Example 120, Isopropyl 4-(4-(3-chloropyridin-4-ylamino)-6H-pyrimido[5,4-b][1,4]oxazin-8(7H)-yl)piperidine-1-carboxylate] | 181 nM | 0.45
3 | CC(C)(C)OC(=O)N1CCC(N2CCOc3c(Nc4c(Cl)cncc4Cl)ncnc32)CC1 [Example 55, tert-Butyl 4-(4-(3,5-dichloropyridin-4-ylamino)-6H-pyrimido[5,4-b][1,4]oxazin-8(7H)-yl)piperidine-1-carboxylate] | 11.1 nM | 0.72
4 | CC(C)(C)OC(=O)N1CCC(N2CCCOc3c(Nc4c(Cl)cncc4Cl)ncnc32)CC1 [Example 89, tert-Butyl 4-(4-(3,5-dichloropyridin-4-ylamino)-7,8-dihydropyrimido[5,4-b][1,4]oxazepin-9(6H)-yl)piperidine-1-carboxylate] | 10.3 nM | 0.65
5 | CC(C)(OC(=O)N1CCC(N2CCOc3c(Nc4ccc(S(C)(=O)=O)cc4F)ncnc32)CC1)C(F)(F)F [Example 143] | 9.74 nM | 0.41
6 | CS(=O)(=O)c1ccc(Nc2ncnc3c2OCCN3C2CCN(C(=O)OCC(F)(F)F)CC2)c(F)c1 [Example 145, 2,2,2-Trifluoroethyl 4-(4-(2-fluoro-4-(methylsulfonyl)phenylamino)-6H-pyrimido[5,4-b][1,4]oxazin-8(7H)-yl)piperidine-1-carboxylate, TFA salt] | 11.4 nM | 0.87
7 | CC(C)(C)OC(=O)N1CCC(N2C(=O)COc3c(Nc4ccc(S(C)(=O)=O)cc4F)ncnc32)CC1 [Example 26, tert-Butyl 4-(4-(2-fluoro-4-(methylsulfonyl)phenylamino)-7-oxo-6H-pyrimido[5,4-b][1,4]oxazin-8(7H)-yl)piperidine-1-carboxylate] | 8.06 nM | 0.51
8 | CC(C)(C)OC(=O)N1CCC(N2CCOc3c(Nc4ccc(C(N)=O)cc4Cl)ncnc32)CC1 [Example 47, tert-Butyl 4-(4-(4-carbamoyl-2-chlorophenylamino)-6H-pyrimido[5,4-b][1,4]oxazin-8(7H)-yl)piperidine-1-carboxylate] | 163 nM | 0.78
9 | CC(C)OC(=O)N1CCC(N2CCOc3c(Nc4ccc(C(N)=O)cc4Cl)ncnc32)CC1 [Example 49, iso-Propyl 4-(4-(4-carbamoyl-2-chlorophenylamino)-6H-pyrimido[5,4-b][1,4]oxazin-8(7H)-yl)piperidine-1-carboxylate] | 196 nM | 0.67
10 | Cc1ccc(Nc2ncnc3c2OCC(=O)N3C2CCN(C(=O)OC(C)C)CC2)cn1 [Example 72, iso-Propyl 4-(4-(6-methylpyridin-3-ylamino)-7-oxo-6H-pyrimido[5,4-b][1,4]oxazin-8(7H)-yl)piperidine-1-carboxylate] | 8580 nM | 0.34
11 | CC(C)OC(=O)N1CCC(N2CCOc3c(Nc4ccc5c(c4)OCO5)ncnc32)CC1 [Example 132, Isopropyl 4-(4-(benzo[d][1,3]dioxol-5-ylamino)-6H-pyrimido[5,4-b][1,4]oxazin-8(7H)-yl)piperidine-1-carboxylate] | 3400 nM | 0.37
12 | Cc1ncccc1Nc1cccc2c1OCCN2C1CCN(C(=O)OC(C)(C)C)CC1 [Example 76, tert-Butyl 4-(8-(2-methylpyridin-3-ylamino)-2H-benzo[b][1,4]oxazin-4 (3H)-yl)piperidine-1-carboxylate] | 3390 nM | 0.38
13 | COc1ccc(Nc2ncnc3c2OCCN3C2CCN(C(=O)OC(C)C)CC2)c(F)c1 [Example 15, iso-Propyl 4-(4-(2-fluoro-4-methoxyphenylamino)-6H-pyrimido[5,4-b][1,4]oxazin-8(7H)-yl)piperidine-1-carboxylate] | 188 nM | 0.48
14 | CC(C)OC(=O)N1CCC(N2C(=O)CCc3c(Nc4ccc(S(C)(=O)=O)cc4F)ncnc32)CC1 [Example 118, Isopropyl 4-(4-(2-fluoro-4-(methylsulfonyl)phenylamino)-7-oxo-6,7-dihydropyrido[2,3-d]pyrimidin-8 (5H)-yl)piperidine-1-carboxylate] | 179 nM | 0.63
15 | CC(C)OC(=O)N1CCC(N2C(=O)COc3c(Nc4cccnc4Cl)ncnc32)CC1 [Example 127, Isopropyl 4-(4-(2-chloropyridin-3-ylamino)-7-oxo-6H-pyrimido[5,4-b][1,4]oxazin-8(7H)-yl)piperidine-1-carboxylate] | 6180 nM | 0.52
16 | CCC(C)OC(=O)N1CCC(N2CCOc3c(Nc4ccc(S(C)(=O)=O)cc4F)ncnc32)CC1 (racemic) [Example 146, (±)-sec-Butyl 4-(4-(2-fluoro-4-(methylsulfonyl)phenylamino)-6H-pyrimido[5,4-b][1,4]oxazin-8(7 H)-yl)piperidine-1-carboxylate, TFA salt] | 8.52 nM | 0.88
17 | CC(C)(C)OC(=O)N1CCC(N2CCCOc3c(Nc4ccncc4)ncnc32)CC1 [Example 100, tert-Butyl 4-(4-(pyridin-4-ylamino)-7,8-dihydropyrimido[5,4-b][1,4]oxazepin-9(6H)-yl)piperidine-1-carboxylate] | 3450 nM | 0.53
18 | Cc1cc(C#N)ccc1Nc1ncnc2c1OCCN2C1CCN(C(=O)OC(C)C)CC1 [Example 134, Isopropyl 4-(4-(4-cyano-2-methylphenylamino)-6H-pyrimido[5,4-b][1,4]oxazin-8(7H)-yl)piperidine-1-carboxylate] | 163 nM | 0.59
19 | Cc1ncccc1Oc1ncnc2c1OCCN2C1CCN(C(=O)OC(C)C)CC1 [Example 25, iso-Propyl 4-(4-(2-methylpyridin-3-yloxy)-6H-pyrimido[5,4-b][1,4]oxazin-8(7H)-yl)piperidine-1-carboxylate] | 4520 nM | 0.27
20 | COC(=O)c1ccc(Nc2ncnc3c2OCCN3C2CCN(C(=O)OC(C)(C)C)CC2)c(Cl)c1 [Example 45, tert-Butyl 4-(4-(2-chloro-4-(methoxycarbonyl)phenylamino)-6H-pyrimido[5,4-b][1,4]oxazin-8(7H)-yl)piperidine-1-carboxylate] | 158 nM | 0.63
21 | COc1ccc(Nc2ncnc3c2OCCN3C2CCN(C(=O)OC(C)C)CC2)cc1 [Example 128, Isopropyl 4-(4-(4-methoxyphenylamino)-6H-pyrimido[5,4-b][1,4]oxazin-8(7H)-yl)piperidine-1-carboxylate] | 3590 nM | 0.7
22 | CS(=O)(=O)c1ccc(Nc2ncnc3c2OCCN3C2CCN(c3nc4ccccc4s3)CC2)c(F)c1 [Example 18, 8-(1-(Benzo[d]thiazol-2-yl)piperidin-4-yl)-N-(2-fluoro-4-(methylsulfonyl)phenyl)-7,8-dihydro-6H-pyrimido[5,4-b][1,4]oxazin-4-amine] | 198 nM | 0.46
23 | CC(C)(C)OC(=O)N1CCC(N2CCOc3c(Nc4ccc(-n5ccnc5)cc4Cl)ncnc32)CC1 [Example 154, tert-Butyl 4-(4-(2-chloro-4-(1H-imidazol-1-yl)phenylamino)-6H-pyrimido[5,4-b][1,4]oxazin-8(7H)-yl)piperidine-1-carboxylate] | 12.9 nM | 0.65
24 | Cc1ccc(Nc2ncnc3c2OCC(=O)N3C2CCN(C(=O)OC(C)(C)C)CC2)cn1 [Example 69, tert-Butyl 4-(4-(6-methylpyridin-3-ylamino)-7-oxo-6H-pyrimido[5,4-b][1,4]oxazin-8(7H)-yl)piperidine-1-carboxylate] | 4310 nM | 0.35
